Measured values taken from patent publication US8436183B2, “Synthetic multimerizing agents” (ARIAD Pharmaceuticals, Inc., priority 1994, dated 2013).
pEC50, pIC50: −log10 of the molar value. Where a name gives a salt, the structure may show the parent alone. Read-outs that look alike come from different tables or passages of the source.

Assays:
FKBP F36A = target: T1, FKBP F36A (Homo sapiens, UniProt P62942, F37A); assay: Competitive Binding FP Assay, F36A mutant FKBP
T1 construct: made in house
T1 sequence (P62942 whole entry F37A): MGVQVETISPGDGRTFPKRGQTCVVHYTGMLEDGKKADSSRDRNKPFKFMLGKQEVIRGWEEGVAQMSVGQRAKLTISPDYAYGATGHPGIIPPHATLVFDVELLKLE
Description: (§1) Affinities of bumped synthetic ligands for FKBP were determined using a competitive assay based on fluorescence polarization (FP). […] The assay yields IC50 values that are related to the affinity of the competitive ligand for the protein.
(§2) For competition FP assays, the appropriate protein concentration (giving ˜90% binding of probe) was first determined by direct binding of probe to protein (see eg. Beacon FP System Applications Guide, Panvera Corp, Madison, Wis.). All binding assay procedures were performed at room temperature. Serial dilutions of each protein were prepared in 50 mM potassium phosphate pH 7.8/150 mM NaCl/100 μg/ml bovine gamma globulin (“FP buffer”: prepared using only low-fluorescence reagents from Panvera), and 100 μl volumes transferred to wells of a Dynatech micro-fluor black 96-well fluorescence plate. 100 μl of 10 nM 4 in FP buffer plus 2% ethanol (prepared from an ethanol stock of the probe) was then added to each well with mixing. Duplicate control wells contained FP buffer instead of FKBP (for 0% probe binding) or 10 μM wild-type FKBP (for 100% binding).
(§3) The plates were stored covered in the dark for approximately 30 min to permit equilibration and then the fluorescence polarization of the sample in each well was read on a Jolley FPM-2 FP plate reader (Jolley Consulting and Research, Inc., Grayslake, Ill.) in accordance with the manufacturer's recommendations. Polarization (mP units) for each protein concentration was plotted (y axis) vs. final concentration of FKBP (x axis). Concentrations were determined by OD280 measurements. Arbitrary units were used for non-quantitated proteins. Non-linear least square analysis was used to fit the curve and extract the Kd of the protein for the probe (in cases where the protein concentration was known) using the following four-parameter equation: y=M3+(((x+M1+M2)−SQRT(((x+M1+M2)^2)−(4*x*M1)))/(2*(M1)))*(M4−M3) where M1 is the probe concentration, M2 the Kd, and M3 and M4 the minimum and maximum mP values respectively.
(§4) Serial 10-fold dilutions of each synthetic ligand were prepared in 100% ethanol in glass vials and stored on ice. All other manipulations were performed at room temperature. […] 2.0 μl samples of the synthetic ligands were then transferred in duplicate to the wells with mixing. Finally, a probe solution was prepared containing 10 nM 4 in 0.1% ethanol/FP buffer, and 100 μl added to each well with mixing. Duplicate control wells contained ethanol instead of FKBP ligand (for 100% probe binding) or ethanol instead of FKBP ligand and FP buffer instead of FKBP (0% binding).
(§5) The plates were stored covered in the dark for approximately 30 min to permit equilibration and then the fluorescence polarization of the sample in each well read on a Jolley FPM-2 FP plate reader (Jolley Consulting and Research, Inc., Grayslake, Ill.) in accordance with the manufacturer's recommendations. The mean polarization (mP units) for each competitor concentration, in some cases converted to % total binding by reference to the control values, was plotted (y axis) vs. log molar final concentration of competitor (x axis). Non-linear least square analysis was used to fit the curve and extract the IC50 using the following equation: y=M1+(M4−M1)/(1+exp(M2*(M3−x))) where M3 is the IC50. For incomplete curves the IC50 was determined by interpolation.

FKBP F36I = target: T2, FKBP F36I (Homo sapiens, UniProt P62942, F37I); assay: Competitive Binding FP Assay, F36I mutant FKBP
T2 construct: made in house
T2 sequence (P62942 whole entry F37I): as the sequence (P62942 whole entry F37A) above, with A37I counted along it
Description: as §1, §2, §3, §4, §5

FKBP F36S = target: T3, FKBP F36S (Homo sapiens, UniProt P62942, F37S); assay: Competitive Binding FP Assay, F36S mutant FKBP; settings: Synthetic Monomers table; normalized to FK506 run in the same experiment
T3 construct: made in house
T3 sequence (P62942 whole entry F37S): as the sequence (P62942 whole entry F37A) above, with A37S counted along it
Description: as §1
(§6) For competition FP assays, the appropriate protein concentration (giving ˜90% binding of probe) was first determined by direct binding of probe to protein (see eg. Beacon FP System Applications Guide, Panvera Corp, Madison, Wis.). All binding assay procedures were performed at room temperature. Serial dilutions of each protein were prepared in 50 mM potassium phosphate pH 7.8/150 mM NaCl/100 μg/ml bovine gamma globulin (“FP buffer”: prepared using only low-fluorescence reagents from Panvera), and 100 μl volumes transferred to wells of a Dynatech micro-fluor black 96-well fluorescence plate. 100 μl of 10 nM 4 in FP buffer plus 2% ethanol (prepared from an ethanol stock of the probe) was then added to each well with mixing. […]
(§7) The plates were stored covered in the dark for approximately 30 min to permit equilibration and then the fluorescence polarization of the sample in each well was read on a Jolley FPM-2 FP plate reader (Jolley Consulting and Research, Inc., Grayslake, Ill.) in accordance with the manufacturer's recommendations. […] Concentrations were determined by OD280 measurements. Arbitrary units were used for non-quantitated proteins. […]

[1] = target: T4, FAS-FKBP fusion (36V FKBP) in HT1080 cells (Homo sapiens, UniProt P62942, F37V); assay: Apoptosis Assay: Fas killing (36V, stable); format: cell-based; settings: mean values
T4 construct: fused on or other part: Fas intracellular effector domain (gives the death read-out)
T4 sequence (P62942 2-108 F37V limits assumed): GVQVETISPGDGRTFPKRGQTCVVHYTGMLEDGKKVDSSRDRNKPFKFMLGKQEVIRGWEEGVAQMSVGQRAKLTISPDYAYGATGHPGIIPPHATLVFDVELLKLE
Excerpt: In this case, one uses cells which constitutively express a detectable product. The cells also contain and are capable of expressing DNAs encoding chimeric proteins comprising one or more immunophilin-derived ligand binding domains and one or more effector domains, such as the intracellular domain of FAS, capable, upon multimerization, of triggering cell death. […] The cells are maintained or cultured in a culture medium permitting cell growth or continued viability. The cells or medium are assayed for the presence of the constitutive cellular product, and a base-line level of reporter is thus established. One may use cells engineered for constitutive production of hGH or any other conveniently detectable product to serve as the reporter. […]
The ability of a dimerizer to activate the Fas signal transduction pathway and trigger cell death in cells engineered to express a FAS-FKBP fusion can be tested in cells appropriately transduced by retroviral vectors to express the desired fusion protein. […] The next day, medium is removed and replaced with medium containing 10% Alamar Blue viability indicator, which changes absorbance properties as a function of reducing agent released into the medium by cell metabolism. Alternatively, cells are counted. Optical density at the appropriate wavelength is measured using a platereader spectroscope.

FKBP F36M = target: T5, FKBP F36M (Homo sapiens, UniProt P62942, F37M); assay: Competitive Binding FP Assay, F36M mutant FKBP
T5 construct: made in house
T5 sequence (P62942 whole entry F37M): as the sequence (P62942 whole entry F37A) above, with A37M counted along it
Description: as §1, §2, §3, §4, §5

wild-type human FKBP12 [2] = target: T6, wild-type human FKBP12 (Homo sapiens, UniProt P62942); assay: Competitive Binding FP Assay, wild-type FKBP; settings: for wild-type, % @ 100000: Synthetic Monomers table, @ 100000 nM competitor
T6 sequence (P62942 whole entry): as the sequence (P62942 whole entry F37A) above, with A37F counted along it
Description: as §1, §2, §3
(§8) Serial 10-fold dilutions of each synthetic ligand were prepared in 100% ethanol in glass vials and stored on ice. All other manipulations were performed at room temperature. […] Finally, a probe solution was prepared containing 10 nM 4 in 0.1% ethanol/FP buffer, and 100 μl added to each well with mixing. […]
(§9) The plates were stored covered in the dark for approximately 30 min to permit equilibration and then the fluorescence polarization of the sample in each well read on a Jolley FPM-2 FP plate reader (Jolley Consulting and Research, Inc., Grayslake, Ill.) in accordance with the manufacturer's recommendations. […] For incomplete curves the IC50 was determined by interpolation.

FKBP F36L = FKBP F36L (Homo sapiens, UniProt P62942, F37L); assay: Competitive Binding FP Assay, F36L mutant FKBP
Chain of FKBP F36L (P62942 whole entry F37L): as the sequence (P62942 whole entry F37A) above, with A37L counted along it
Description: as §1, §2
The plates were stored covered in the dark for approximately 30 min to permit equilibration and then the fluorescence polarization of the sample in each well was read on a Jolley FPM-2 FP plate reader (Jolley Consulting and Research, Inc., Grayslake, Ill.) in accordance with the manufacturer's recommendations. Polarization (mP units) for each protein concentration was plotted (y axis) vs. final concentration of FKBP (x axis). Concentrations were determined by OD280 measurements. Arbitrary units were used for non-quantitated proteins. […]
as §9

wild-type human FKBP12 [3] = target: T6, wild-type human FKBP12
Description: as §1, §2, §3, §8, §9

FKBP F36V = FKBP F36V (Homo sapiens, UniProt P62942, F37V); assay: Competitive Binding FP Assay, F36V mutant FKBP
Chain of FKBP F36V (P62942 whole entry F37V): as the sequence (P62942 whole entry F37A) above, with A37V counted along it
Description: as §1, §6, §7

[4] = Synthetic Monomers table, normalized to FK506 run in the same experiment

## CCC(C)(C)C(=O)C(=O)N1CCCC[C@H]1C(=O)O[C@H](CCc1ccc(OC)c(OC)c1)c1cccc(OCC(=O)O)c1 [AP1497]
FKBP F36A; [4]
  pIC50: 6.76
FKBP F36I; [4]
  pIC50: 7.37
FKBP F36S
  pIC50: 5.74

## AP20187
[1]
  pEC50: > 9.00

## COc1ccc(CCC(OC(=O)C2CCCCN2C(=O)C(c2ccccc2)C2CCCC2)c2cccc(OCC(=O)O)c2)cc1OC (mixture of isomers) [AP1778]
FKBP F36A; [4]
  pIC50: 7.12
FKBP F36I; [4]
  pIC50: 7.39

## COc1ccc(CCC(OC(=O)C2CCCCN2C(=O)C(Cc2ccccc2)c2ccccc2)c2cccc(OCC(=O)O)c2)cc1OC (mixture of isomers) [AP1831]
FKBP F36A; [4]
  pIC50: 6.35
FKBP F36I; [4]
  pIC50: 6.91
FKBP F36M; [4]
  pIC50: 6.77

## COc1ccc(CC[C@@H](OC(=O)[C@@H]2CCCCN2C(=O)C(c2ccccc2)c2ccccc2)c2cccc(OCC(=O)O)c2)cc1OC [AP14245]
wild-type human FKBP12 [2]
  wild-type, % @ 100000: 73% @ 100000

## COc1ccc(CC[C@@H](OC(=O)[C@@H]2CCCCN2C(=O)Cc2ccccc2)c2cccc(OCC(=O)O)c2)cc1OC [AP1780]
FKBP F36L; read-out: F36L IC50, Synthetic Monomers table, normalized to FK506 run in the same experiment
  pIC50: 5.45

## CCC(C(=O)N1CCCC[C@H]1C(=O)O[C@H](CCc1ccc(OC)c(OC)c1)c1cccc(OCC(=O)O)c1)c1ccc2c(c1)OCO2 (stereo partly drawn) [AP1839]
wild-type human FKBP12 [3]
  pIC50: < 4.77

## CC[C@H](C(=O)N1CCCC[C@H]1C(=O)O[C@H](CCN1CCOCC1)c1cccc(OCC(=O)O)c1)c1cc(OC)c(OC)c(OC)c1 [AP14246, (1R)-1-(3-(carboxymethoxy)phenyl)-3-(morpholino)-1-propyl (2S)-1-((2S)-(3,4,5-trimethoxyphenyl)butyryl)-2-piperidine carboxylate]
FKBP F36V
  pIC50: 7.78
FKBP F36A
  pIC50: 7.11
wild-type human FKBP12 [2]
  wild-type, % @ 100000: 75% @ 100000
FKBP F36L
  pIC50: 7.17
FKBP F36I
  pIC50: 7.49
FKBP F36M
  pIC50: 7.28

## COc1ccc(CCC(OC(=O)C2CCCCN2C(=O)C(c2ccccc2)C(C)C)c2cccc(OCC(=O)O)c2)cc1OC (mixture of isomers) [AP1781]
FKBP F36A; [4]
  pIC50: 6.96
FKBP F36I; [4]
  pIC50: 7.44
FKBP F36M; [4]
  pIC50: 7.26

## CC[C@H](C(=O)N1CCCC[C@H]1C(=O)O[C@H](CCc1cccnc1)c1cccc(OCC(=O)O)c1)c1cc(OC)c(OC)c(OC)c1 [AP14252, hydrochloride]
FKBP F36A
  pIC50: 7.20
FKBP F36I
  pIC50: 8.17
FKBP F36M
  pIC50: 7.27

## CC[C@H](C(=O)N1CCCC[C@H]1C(=O)O[C@H](CCc1ccc(OC)c(OC)c1)c1cccc(OCC(=O)O)c1)c1cc(OC)c(OC)c(OC)c1 [AP1867]
FKBP F36V
  pIC50: 8.74
FKBP F36A
  pIC50: 7.74
wild-type human FKBP12 [2]
  pIC50: 5.53
FKBP F36L
  pIC50: 8.21
FKBP F36I
  pIC50: 8.29
FKBP F36M
  pIC50: 8.00
